Here are results for 13 compounds from US10189786B2, “Antibacterial compounds” (Duke University, priority 2013, dated 2019).

Common to all, as to assay type: cell-based
The test system of one test is E. coli W3110. Kind of test: microbe, parasite or virus in culture. Particulars: wild-type E. coli W3110, 22 hours at 37° C., MTT; for MIC: Escherichia coli, W3110, 22 h.
The next test deals with P. aeruginosa PAO1. As to the kind of experiment: MIC assay, P. aeruginosa PAO1. Particulars: P. aeruginosa PAO1.
In test [1] the test system is N. gonorrhoeae FA19 (a drug-sensitive strain). As to the kind of experiment: Disk diffusion assay, N. gonorrhoeae FA19. Particulars: disc 6 mm; for zone of inhibition at 2 µg/disc / zone of inhibition at 20 µg/disc / zone of inhibition at 0.2 µg/disc: Neisseria gonorrhoeae, read-out: diameter of the growth inhibition, FA19. As to the method: (§1) An assay was performed on two strains of Acinetobacter Baumannii: antibiotic susceptible strain (Sus. A.b. Isolate), and multidrug-resistant strains (MDR A.b. Isolate). […] Activity is measured as the diameter (in mm) of the growth inhibition.
(In agar diffusion tests the substance spreads into inoculated agar from a disc or well.)

The subject of test [2] is N. gonorrhoeae 35/02 (drug-resistant strain). As to the kind of experiment: Disk diffusion assay, N. gonorrhoeae 35/02. The conditions noted are these: disc 6 mm; for zone of inhibition at 0.2 µg/disc / zone of inhibition at 2 µg/disc / zone of inhibition at 20 µg/disc: Neisseria gonorrhoeae, read-out: diameter of the growth inhibition, 35/02. The method, then:
as §1

The test system of test [3] is N. gonorrhoeae F89 (high-level cefixime and ceftriaxone resistance). Kind of test: Disk diffusion assay, N. gonorrhoeae F89. Particulars: disc 6 mm; for zone of inhibition at 0.2 µg/disc / zone of inhibition at 2 µg/disc / zone of inhibition at 20 µg/disc: Neisseria gonorrhoeae, read-out: diameter of the growth inhibition, F89. As to the method: as §1
In another test the test system is N. gonorrhoeae H041. Kind of test: Disk diffusion assay, N. gonorrhoeae H041. The conditions noted are these: disc 6 mm; for zone of inhibition at 0.2 µg/disc / zone of inhibition at 2 µg/disc / zone of inhibition at 20 µg/disc: Neisseria gonorrhoeae, read-out: diameter of the growth inhibition, H041; for zone of inhibition at 0.2 µg/disc: H041, 0.2 μg per disc; for zone of inhibition at 2 µg/disc: H041, 2.0 μg per disc; for zone of inhibition at 20 µg/disc: H041, 20 μg per disc. The method, then:
as §1

SMILES strings stand for the structures. ≈ marks a conversion by molar mass, not a printed value.

With `CC(NCCc1ccc(-c2ccccc2)cc1)(C(=O)NO)C(C)(O)C(F)F.Cl` (stereo not drawn) [Example 136], in the test on E. coli W3110, the “MIC E. coli W3110” value was more than 40 mg/L. Besides, the “MIC P. aeruginosa PAO1” value in the test with P. aeruginosa PAO1 was more than 40 mg/L.
On to `COc1ccc(-c2ccc(CCCN[C@H](C(=O)NO)[C@](C)(O)C(F)F)cc2)cc1` [Example 137], for which the MIC against E. coli W3110 came to 12 mg/L (≈ 29.4 µM).
For `C[C@@](O)(C(F)F)[C@H](NCCCc1ccc(-c2ccc(CN3CCOCC3)cc2)cc1)C(=O)NO` [Example 138], the MIC in the test with E. coli W3110 turned out to be 3 mg/L (≈ 6.28 µM).
`CC(O)(CF)C(C)(NCCCc1ccc(-c2ccccc2)cc1)C(=O)NO.Cl` (stereo not drawn) [Example 139]: the “MIC E. coli W3110” value in the test with E. coli W3110 amounted to 50 mg/L. Also, the “diameter of the growth inhibition, FA19” value in test [1] (0.2 μg per disc) came to 11 mm; in test [1] (2.0 μg per disc), 20 mm; in test [1] (20 μg per disc), 24 mm. The “diameter of the growth inhibition, 35/02” value turned out to be 7 mm in test [2] (0.2 μg per disc), 15 mm in test [2] (2.0 μg per disc) and 22 mm in test [2] (20 μg per disc). Besides, the figures for the “diameter of the growth inhibition, F89” value in test [3] (0.2 μg per disc), in test [3] (2.0 μg per disc) and in test [3] (20 μg per disc) were 11 mm, 20 mm and 28 mm, respectively. The “diameter of the growth inhibition, H041” value is recorded as 7 mm in the test with N. gonorrhoeae H041 (0.2 μg per disc), 14 mm in the test on N. gonorrhoeae H041 (2.0 μg per disc) and 21 mm with N. gonorrhoeae H041 (20 μg per disc).
On to `COc1ccc(-c2ccn(CCCNC(C)(C(=O)NO)C(C)(O)CF)c(=O)c2)cc1` (stereo not drawn) [Example 140], for which, in the test on E. coli W3110, the MIC turned out to be 100 mg/L (≈ 237 µM). Besides, the zone of inhibition at 2 µg/disc in test [1] (2.0 μg per disc) is 13 mm. In addition, the zone of inhibition at 20 µg/disc in test [1] (20 μg per disc) amounted to 22 mm.
In the test on E. coli W3110, `C[C@@](O)(C(F)F)[C@H](NCc1ccc(-c2ccccc2)cc1O)C(=O)NO` [Example 141] showed an MIC of 50 mg/L (≈ 136 µM). Besides, the zone of inhibition at 0.2 µg/disc in test [1] (0.2 μg per disc) is 12 mm; in test [2] (0.2 μg per disc) it was 7 mm; in test [3] (0.2 μg per disc) it was 10 mm; with N. gonorrhoeae H041 it was 0 mm. For the same compound, the zone of inhibition at 2 µg/disc came to 21 mm in test [1] (2.0 μg per disc), 16 mm in test [2] (2.0 μg per disc), 22 mm in test [3] (2.0 μg per disc) and 15 mm with N. gonorrhoeae H041. Also, the zone of inhibition at 20 µg/disc in test [1] (20 μg per disc) amounted to 28 mm; in test [2] (20 μg per disc), 25 mm; in test [3] (20 μg per disc), 30 mm; in the test with N. gonorrhoeae H041 it was 22 mm.
`COc1ccc(-c2ccc(CN[C@H](C(=O)NO)[C@](C)(O)C(F)F)cc2)cc1` [Example 142] showed an MIC against E. coli W3110 of 100 mg/L (≈ 263 µM). In addition, the zone of inhibition at 0.2 µg/disc (in test [1] (0.2 μg per disc); in test [2] (0.2 μg per disc); in test [3] (0.2 μg per disc); with N. gonorrhoeae H041) was 0 mm each time. Besides, the zone of inhibition at 2 µg/disc was 16 mm in test [1] (2.0 μg per disc), 11 mm in test [2] (2.0 μg per disc), 16 mm in test [3] (2.0 μg per disc) and 8 mm in the test with N. gonorrhoeae H041. In addition, the zone of inhibition at 20 µg/disc in test [1] (20 μg per disc) stood at 21 mm; in test [2] (20 μg per disc), 20 mm; in test [3] (20 μg per disc), 24 mm; with N. gonorrhoeae H041, 17 mm.
In the test with E. coli W3110, `CN1CCN(Cc2ccc(-c3ccc(CCCN[C@H](C(=O)NO)[C@](C)(O)C(F)F)cc3)cc2)CC1` [Example 144] gave an MIC of 50 mg/L (≈ 102 µM). The zone of inhibition at 0.2 µg/disc (in test [1] (0.2 μg per disc); in test [2] (0.2 μg per disc); in test [3] (0.2 μg per disc); in the test on N. gonorrhoeae H041) was 0 mm each time. Also, the zone of inhibition at 2 µg/disc (in test [1] (2.0 μg per disc); in test [2] (2.0 μg per disc); in test [3] (2.0 μg per disc); in the test on N. gonorrhoeae H041) was 0 mm throughout. The zone of inhibition at 20 µg/disc (in test [1] (20 μg per disc); in test [2] (20 μg per disc); in test [3] (20 μg per disc); in the test on N. gonorrhoeae H041) was 0 mm in each case.
Consider `C[C@@](O)(C(F)F)[C@H](NCc1ccc(-c2ccc(OCCN3CCOCC3)cc2)cc1)C(=O)NO` [Example 145], for which the MIC in the test with E. coli W3110 is 25 mg/L (≈ 52.1 µM). Besides, the zone of inhibition at 0.2 µg/disc (in test [1] (0.2 μg per disc); in test [2] (0.2 μg per disc); in test [3] (0.2 μg per disc); in the test with N. gonorrhoeae H041) was 0 mm each time. The zone of inhibition at 2 µg/disc in test [1] (2.0 μg per disc) amounted to 0 mm; in test [2] (2.0 μg per disc), 0 mm; in test [3] (2.0 μg per disc), 7 mm; with N. gonorrhoeae H041, 7 mm. Besides, the zone of inhibition at 20 µg/disc in test [1] (20 μg per disc) stood at 14 mm; in test [2] (20 μg per disc), 12 mm; in test [3] (20 μg per disc), 21 mm; in the test on N. gonorrhoeae H041 it was 11 mm.
On to `COc1cc(-c2ccccc2)ccc1CN[C@H](C(=O)NO)[C@](C)(O)C(F)F` [Example 146], for which the zone of inhibition at 0.2 µg/disc (in test [1] (0.2 μg per disc); in test [2] (0.2 μg per disc); in test [3] (0.2 μg per disc); with N. gonorrhoeae H041) was 0 mm in each case. Further, the zone of inhibition at 2 µg/disc came to 10 mm in test [1] (2.0 μg per disc), 0 mm in test [2] (2.0 μg per disc), 11 mm in test [3] (2.0 μg per disc) and 8 mm in the test with N. gonorrhoeae H041. For the same compound, the zone of inhibition at 20 µg/disc is 25 mm in test [1] (20 μg per disc), 16 mm in test [2] (20 μg per disc), 27 mm in test [3] (20 μg per disc) and 19 mm with N. gonorrhoeae H041.
For the compound `C[C@@](O)(C(F)F)[C@H](NC/C=C/c1ccc(-c2ccccc2)cc1)C(=O)NO` [Example 147], the zone of inhibition at 0.2 µg/disc in test [1] (0.2 μg per disc) is 22 mm; in test [2] (0.2 μg per disc) it was 17 mm; in test [3] (0.2 μg per disc), 28 mm; in the test with N. gonorrhoeae H041 it was 14 mm. For the same compound, the zone of inhibition at 2 µg/disc in test [1] (2.0 μg per disc) was found to be 28 mm; in test [2] (2.0 μg per disc) it was 28 mm; in test [3] (2.0 μg per disc), 33 mm; in the test on N. gonorrhoeae H041 it was 30 mm. Moreover, the zone of inhibition at 20 µg/disc in test [1] (20 μg per disc) worked out at 32 mm; in test [2] (20 μg per disc) it was 34 mm; in test [3] (20 μg per disc), 38 mm; in the test on N. gonorrhoeae H041, 35 mm.
As for `CC(NCCCc1ccc(-c2ccccc2)cc1)(C(=O)NO)C(O)(CF)CF` (stereo not drawn) [Example 148], the zone of inhibition at 0.2 µg/disc was 12 mm in test [1] (0.2 μg per disc), 0 mm in test [2] (0.2 μg per disc), 13 mm in test [3] (0.2 μg per disc) and 9 mm in the test on N. gonorrhoeae H041. Besides, the zone of inhibition at 2 µg/disc is 19 mm in test [1] (2.0 μg per disc), 17 mm in test [2] (2.0 μg per disc), 19 mm in test [3] (2.0 μg per disc) and 15 mm in the test with N. gonorrhoeae H041. Besides, the zone of inhibition at 20 µg/disc in test [1] (20 μg per disc) is 27 mm; in test [2] (20 μg per disc) it was 24 mm; in test [3] (20 μg per disc), 27 mm; in the test on N. gonorrhoeae H041, 24 mm.
Consider `C[C@@](O)(C(F)F)[C@H](NCc1ccc2cc(-c3ccccc3)ccc2c1)C(=O)NO` [Example 149], for which the zone of inhibition at 0.2 µg/disc was 15 mm in test [1] (0.2 μg per disc), 11 mm in test [2] (0.2 μg per disc), 19 mm in test [3] (0.2 μg per disc) and 10 mm in the test on N. gonorrhoeae H041. Further, the zone of inhibition at 2 µg/disc in test [1] (2.0 μg per disc) came to 22 mm; in test [2] (2.0 μg per disc), 22 mm; in test [3] (2.0 μg per disc), 24 mm; in the test on N. gonorrhoeae H041, 24 mm. In addition, the zone of inhibition at 20 µg/disc in test [1] (20 μg per disc) worked out at 26 mm; in test [2] (20 μg per disc), 25 mm; in test [3] (20 μg per disc), 30 mm; with N. gonorrhoeae H041 it was 27 mm.
